Laboratory results as given in US20250129078A1, “ERBB2 INHIBITORS” (Cogent Biosciences, Inc., priority 2023, published 2025).
pIC50: −log10 of the molar value.

Columns and labels:
[1] = biological target: ErbB2 V777L (Homo sapiens (Human), UniProt P04626, V777L); assay: ErbB enzyme assay (CisBio HTRF-KinEASE-TK), ErbB2 V777L; assay type: biochemical
Description: In vitro enzyme assays based on CisBio HTRF-KinEASE-TK technology were used to determine compound potencies. […] After another 1 h incubation at ambient temperature, the extent of substrate phosphorylation was determined using a PerkinElmer EnVision multimode plate reader via time-resolved fluorescence dual wavelength detection. The percent of control (POC) was calculated using the ratio of emission at […] to the emission at 620 nm. One hundred POC was determined using DMSO only controls (no test compounds present) and zero POC was determined using pre-quenched controls reactions. A 4-parameter logistic equation was fit to the POC values as a function of the test compound concentration and the IC50 value was determined as the point where the curve crossed 50 POC.

[2] = biological target: EGFR WT (Homo sapiens (Human), UniProt P00533); assay: ErbB enzyme assay (CisBio HTRF-KinEASE-TK), EGFR WT; assay type: biochemical; details: ATP at Km (25 μM), 1 h incubation
In short: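 Tyrosine kinase HTRF, 1 h RT reaction → quench (Sa-XL665/TK-Ab-Cryptate) → 1 h RT → 655/620 ratio.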

EGFR WT, sequence (P00533 25-1210): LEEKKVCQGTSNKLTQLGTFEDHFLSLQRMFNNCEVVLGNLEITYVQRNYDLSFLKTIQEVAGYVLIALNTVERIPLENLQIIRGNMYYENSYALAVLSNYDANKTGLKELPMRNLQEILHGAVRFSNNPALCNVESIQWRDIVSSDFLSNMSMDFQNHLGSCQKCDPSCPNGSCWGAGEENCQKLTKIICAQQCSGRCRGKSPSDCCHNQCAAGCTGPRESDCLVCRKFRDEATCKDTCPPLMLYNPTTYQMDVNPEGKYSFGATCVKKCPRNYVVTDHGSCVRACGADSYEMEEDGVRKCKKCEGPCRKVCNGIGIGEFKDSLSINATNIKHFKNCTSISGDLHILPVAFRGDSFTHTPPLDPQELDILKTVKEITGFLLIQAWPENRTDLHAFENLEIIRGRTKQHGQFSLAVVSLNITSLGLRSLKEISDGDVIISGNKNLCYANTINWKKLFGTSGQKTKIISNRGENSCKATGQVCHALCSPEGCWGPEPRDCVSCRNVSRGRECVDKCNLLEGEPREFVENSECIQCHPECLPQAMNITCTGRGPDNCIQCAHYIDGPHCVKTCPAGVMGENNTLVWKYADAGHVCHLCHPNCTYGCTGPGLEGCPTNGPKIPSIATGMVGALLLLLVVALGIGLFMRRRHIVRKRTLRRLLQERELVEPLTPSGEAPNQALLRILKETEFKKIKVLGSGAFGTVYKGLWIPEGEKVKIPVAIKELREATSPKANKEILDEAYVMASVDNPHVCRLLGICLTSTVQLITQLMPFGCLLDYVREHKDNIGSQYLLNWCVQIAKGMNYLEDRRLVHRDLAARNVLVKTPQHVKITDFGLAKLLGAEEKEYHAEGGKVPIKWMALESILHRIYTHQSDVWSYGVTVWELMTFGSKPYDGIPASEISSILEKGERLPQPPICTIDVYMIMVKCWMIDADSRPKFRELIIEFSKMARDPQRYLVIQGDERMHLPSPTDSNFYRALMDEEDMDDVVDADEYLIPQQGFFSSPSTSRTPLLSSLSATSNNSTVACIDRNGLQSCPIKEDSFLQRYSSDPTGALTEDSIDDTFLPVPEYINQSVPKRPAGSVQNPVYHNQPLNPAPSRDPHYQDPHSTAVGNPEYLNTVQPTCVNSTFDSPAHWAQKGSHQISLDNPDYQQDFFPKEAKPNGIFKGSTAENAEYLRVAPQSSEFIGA
ErbB2 V777L, sequence (P04626 23-1255 V777L): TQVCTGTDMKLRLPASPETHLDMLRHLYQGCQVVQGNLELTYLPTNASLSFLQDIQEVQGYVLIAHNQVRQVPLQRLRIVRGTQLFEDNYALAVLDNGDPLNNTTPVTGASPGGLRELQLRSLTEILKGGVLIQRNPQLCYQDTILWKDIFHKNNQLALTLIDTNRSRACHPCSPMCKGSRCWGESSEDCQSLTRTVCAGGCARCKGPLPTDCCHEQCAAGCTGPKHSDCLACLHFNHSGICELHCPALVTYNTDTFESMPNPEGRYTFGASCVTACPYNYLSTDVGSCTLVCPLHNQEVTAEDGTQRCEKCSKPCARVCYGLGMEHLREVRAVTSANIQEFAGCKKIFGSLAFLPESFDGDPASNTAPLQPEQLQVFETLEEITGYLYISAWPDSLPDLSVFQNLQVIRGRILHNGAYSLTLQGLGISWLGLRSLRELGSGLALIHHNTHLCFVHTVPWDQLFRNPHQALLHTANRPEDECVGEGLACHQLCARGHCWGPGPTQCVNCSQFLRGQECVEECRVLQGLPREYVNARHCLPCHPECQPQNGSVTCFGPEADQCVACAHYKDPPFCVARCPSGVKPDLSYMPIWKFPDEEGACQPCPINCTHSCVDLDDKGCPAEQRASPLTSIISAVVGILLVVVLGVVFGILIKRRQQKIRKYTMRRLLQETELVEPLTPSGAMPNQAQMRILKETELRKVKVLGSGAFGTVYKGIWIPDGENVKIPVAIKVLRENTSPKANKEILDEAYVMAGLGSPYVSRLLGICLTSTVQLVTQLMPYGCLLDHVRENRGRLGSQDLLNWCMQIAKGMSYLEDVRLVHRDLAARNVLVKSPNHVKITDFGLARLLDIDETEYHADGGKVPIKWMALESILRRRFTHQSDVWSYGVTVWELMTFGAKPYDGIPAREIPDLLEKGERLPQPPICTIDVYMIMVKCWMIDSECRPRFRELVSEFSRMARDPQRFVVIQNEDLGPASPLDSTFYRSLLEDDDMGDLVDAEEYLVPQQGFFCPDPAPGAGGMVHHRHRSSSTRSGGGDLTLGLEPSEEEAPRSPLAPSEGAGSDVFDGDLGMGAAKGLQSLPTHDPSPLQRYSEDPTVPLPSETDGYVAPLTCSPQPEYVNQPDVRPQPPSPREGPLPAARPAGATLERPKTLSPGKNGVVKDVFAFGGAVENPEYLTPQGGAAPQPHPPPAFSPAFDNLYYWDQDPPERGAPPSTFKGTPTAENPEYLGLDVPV

| Compound | pIC50 [1] | pIC50 [2] |
| --- | --- | --- |
| C=CC(=O)N1CCN(c2ncc3ncnc(Nc4cc(C)c(Oc5ccc6c(c5)nnn6C)c(Cl)c4)c3n2)C[C@H]1C [Compound 151, (R)-1-(4-(8-((3-chloro-5-methyl-4-((1-methyl-1H-benzo[d][1,2,3]triazol-5-yl)oxy)phenyl)amino)pyrimido[5,4-d]pyrimidin-2-yl)-2-methylpiperazin-1-yl)prop-2-en-1-one] | 6.30 to 7.00 | 6.30 to 7.00 |
| C=CC(=O)N(C)C1CN(c2ncc3ncnc(Nc4ccc(Oc5ccc6c(c5)nnn6C)c(C)c4)c3n2)C1 [Compound 26, N-methyl-N-(1-(8-((3-methyl-4-((1-methyl-1H-benzo[d][1,2,3]triazol-5-yl)oxy)phenyl)amino)pyrimido[5,4-d]pyrimidin-2-yl)azetidin-3-yl)acrylamide] | 6.30 to 7.00 | 6.30 to 7.00 |
| C=CC(=O)N1CCN(c2ncc3ncnc(Nc4cc(C)c(Oc5cc(F)c6c(c5)nnn6C)cc4OC)c3n2)C[C@H]1C [Compound 164, (R)-1-(4-(8-((4-((7-fluoro-1-methyl-1H-benzo[d][1,2,3]triazol-5-yl)oxy)-2-methoxy-5-methylphenyl)amino)pyrimido[5,4-d]pyrimidin-2-y1)-2-methylpiperazin-1-yl)prop-2-en-1-one] | 6.00 to 6.30 | 6.00 to 6.30 |
| C=CC(=O)N1CCN(c2nc3c(Nc4ccc(Oc5ccc6c(c5)nnn6C)c(C)c4)ncnc3cc2C)CC1 [Compound 374, 1-(4-(7-methyl-4-((3-methyl-4-((1-methyl-H-benzo[d][1,2,3]triazol-5-yl)oxy)phenyl)amino)pyrido[3,2-d]pyrimidin-6-yl)piperazin-1-yl)prop-2-en-1-one] | 6.30 to 7.00 | 6.00 to 6.30 |
| C=CC(=O)NC1CCN(c2ccc3ncnc(Nc4ccc(Oc5ccc6c(c5)nnn6C)c(C)c4)c3n2)CC1 [Compound 304, N-(1-(4-((3-methyl-4-((1-methyl-1H-benzo[d][1,2,3]triazol-5-yl)oxy)phenyl)amino)pyrido[3,2-d]pyrimidin-6-yl)piperidin-4-yl)acrylamide] | 6.30 to 7.00 | 6.30 to 7.00 |

Next, values leading:

| pIC50 [1] | pIC50 [2] | Compound |
| --- | --- | --- |
| 6.30 to 7.00 | ≤ 6.00 | C=CC(=O)N1CCN(c2ccc3ncnc(Nc4ccc(Oc5cc6nnn(C)c6c(F)c5C)c(C)c4)c3n2)C[C@H]1C [Compound 299, (R)-1-(4-(4-((4-((7-fluoro-1,6-dimethyl-1H-benzo[d][1,2,3]triazol-5-yl)oxy)-3-methylphenyl)amino)pyrido[3,2-d]pyrimidin-6-yl)-2-methylpiperazin-1-yl)prop-2-en-1-one] |
| 7.00 to 7.30 | 6.30 to 7.00 | C=CC(=O)N1CCN(c2ccc3ncnc(Nc4cc(F)c(Oc5ccc6c(c5)nnn6C)c(C)c4F)c3n2)C[C@H]1C [Compound 326, (R)-1-(4-(4-((2,5-difluoro-3-methyl-4-((1-methyl-1H-benzo[d][1,2,3]triazol-5-yl)oxy)phenyl)amino)pyrido[3,2-d]pyrimidin-6-yl)-2-methylpiperazin-1-yl)prop-2-en-1-one] |
| 6.30 to 7.00 | 6.30 to 7.00 | C=CC(=O)N1CCN(c2ccc3ncnc(Nc4cc(C)c(Oc5ccc6c(c5)nnn6C)cc4OC(F)(F)F)c3n2)CC1(C)C [Compound 306, 1-(2,2-dimethyl-4-(4-((5-methyl-4-((1-methyl-1H-benzo[d][1,2,3]triazol-5-yl)oxy)-2-(trifluoromethoxy)phenyl)amino)py-rido[3,2-d]pyrimidin-6-yl)piperazin-1-yl)prop-2-en-1-one] |
| 6.30 to 7.00 | ≤ 6.00 | C=C1CCN(C2CCN(c3ncc4ncnc(Nc5ccc(Oc6ccn7ncnc7c6)c(C)c5)c4n3)CC2)C1=O [Compound 240, 1-(1-(8-((4-([1,2,4]triazolo[1,5-a]pyridin-7-yloxy)-3-methylphenyl)amino)pyrimido[5,4-d]pyrimidin-2-yl)piperidin-4-yl)-3-methylenepyrrolidin-2-one] |
